These results are taken from ChEMBL document CHEMBL1201862, “PubChem BioAssay data set” (2004).

Each structure is given as a SMILES string.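 Cells were grown in 96-well plates and exposed to each compound for 48 hours at five concentrations; endpoints were interpolated linearly between bracketing concentrations, or set to the highest concentration if not reached. Here, GI50 denotes the concentration required for 50% inhibition of growth.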 The source made the active and inactive calls. Rule as the data show it: active = GI50 up to about 1.1 µM and inactive = higher. A value given as a limit tells only on which side of the number the result lay.

Some test systems named below: SK-OV-3; SF-295; 786-0; DU-145; MDA-MB-435; SF-539; COLO 205; SN12C; LOX IMVI; MCF7; SNB-75; NCI-H522; SR; UO-31; OVCAR-8; K562; EKVX; Hs-578T; Malme-3M; TK-10.
Holding throughout (experiment): inhibition of tumour cell growth, NCI panel, 48 h

`Cc1ccc2ccc3ccc(C)nc3c2n1` [NEOCUPROINE]: the GI50 was > 100 µM (inactive) with SK-OV-3; 5.65 µM (inactive) in the experiment on SF-295; > 29.7 µM (inactive) in the experiment with 786-0; > 100 µM (inactive) in the experiment on DU-145; > 100 µM (inactive) with MDA-MB-435; 49.2 µM (inactive) in the experiment with SF-539. Moreover, the GI50 in the experiment with COLO 205 was 0.491 µM (active); in the experiment with SN12C, > 100 µM (inactive); with LOX IMVI, 4.09 µM (inactive); in the experiment on MCF7, 0.318 µM (active); with SNB-75, > 52 µM (inactive); in the experiment with NCI-H522, 74.3 µM (inactive). For the same compound, the GI50 in the experiment on SR was 0.728 µM (active); with UO-31, > 76.2 µM (inactive); with OVCAR-8 it was > 26.9 µM (inactive); in the experiment with K562 it was 0.542 µM (active); in the experiment with EKVX, > 100 µM (inactive); with Hs-578T it was > 100 µM (inactive). Further, the GI50 with Malme-3M and in the experiment on TK-10 was > 100 µM (inactive) each time.

Take `Cc1ccc(S(=O)(=O)N/C(=C\C=C\c2ccccc2)C(=O)C(C)(C)C)cc1`: the GI50 is 38.6 µM (inactive) with SK-OV-3; 75 µM (inactive) in the experiment with SF-295; 27.5 µM (inactive) in the experiment with 786-0; > 100 µM (inactive) in the experiment with DU-145; > 100 µM (inactive) in the experiment with MDA-MB-435; 37.9 µM (inactive) in the experiment on SF-539. Also, the GI50 was > 100 µM (inactive) in the experiment on COLO 205; > 100 µM (inactive) in the experiment with SN12C; > 100 µM (inactive) in the experiment on LOX IMVI; 73.1 µM (inactive) with MCF7; 56.2 µM (inactive) with SNB-75; 59 µM (inactive) with NCI-H522. Besides, the GI50 in the experiment on SR was > 100 µM (inactive); in the experiment with UO-31, > 100 µM (inactive); in the experiment on OVCAR-8, 51.4 µM (inactive); with K562 it was > 100 µM (inactive); with EKVX it was > 100 µM (inactive); with Hs-578T it was 35.1 µM (inactive). The GI50 with Malme-3M and in the experiment on TK-10 was > 100 µM (inactive) each time.

On to `COC(=O)c1ccc(/C=C2\CCc3ccccc3C2=O)cc1`, for which the GI50 with SK-OV-3, with SF-295, in the experiment with 786-0, in the experiment with DU-145, in the experiment with MDA-MB-435 and in the experiment with SF-539 was > 100 µM (inactive) each time. In addition, the GI50 with COLO 205 is > 100 µM (inactive); with SN12C it was > 100 µM (inactive); with LOX IMVI, > 100 µM (inactive); with MCF7 it was > 100 µM (inactive); in the experiment on SNB-75, > 100 µM (inactive); in the experiment with NCI-H522, 69.7 µM (inactive). In addition, the GI50 with SR, in the experiment with UO-31, with OVCAR-8, in the experiment on K562, with EKVX and with Hs-578T was > 100 µM (inactive) each time. Further, the GI50 in the experiment on Malme-3M and in the experiment on TK-10 was > 100 µM (inactive) each time.

As for `O=C1c2cc3c(cc2CC12Cc1ccccc1C2)CCC3`, the GI50 with SK-OV-3 is > 100 µM (inactive); with SF-295 it was 46.5 µM (inactive); with 786-0, 21.1 µM (inactive); in the experiment on DU-145, 52 µM (inactive); in the experiment on MDA-MB-435, 28.2 µM (inactive); in the experiment with SF-539 it was 31.4 µM (inactive). Also, the GI50 was 18.6 µM (inactive) in the experiment with COLO 205; 29.1 µM (inactive) with SN12C; 18.6 µM (inactive) with LOX IMVI; 18.8 µM (inactive) in the experiment with MCF7; 31.6 µM (inactive) in the experiment on SNB-75; 27.4 µM (inactive) with NCI-H522. Further, the GI50 with SR was 35.9 µM (inactive); with UO-31, 26.2 µM (inactive); in the experiment with OVCAR-8 it was 21.2 µM (inactive); in the experiment with K562, 44.3 µM (inactive); in the experiment with EKVX, 29.9 µM (inactive); with Hs-578T, 31.6 µM (inactive). Moreover, the GI50 was 28.1 µM (inactive) in the experiment on Malme-3M and 42.5 µM (inactive) with TK-10.

Regarding `CCOC(=O)C1(C(=O)OCC)[C@@H](c2ccccc2)C2=NO[C@@H]3CCC[C@H]1[C@H]23`, the GI50 with SK-OV-3 was 53.6 µM (inactive); in the experiment on SF-295 it was 51.6 µM (inactive); in the experiment with 786-0, 89.3 µM (inactive); in the experiment with DU-145, > 100 µM (inactive); with MDA-MB-435, 21.6 µM (inactive); with SF-539, 96.2 µM (inactive). Further, the GI50 with COLO 205 is 29 µM (inactive); in the experiment on SN12C it was > 100 µM (inactive); in the experiment with LOX IMVI it was 81.1 µM (inactive); in the experiment with MCF7 it was 41.7 µM (inactive); with SNB-75 it was 47.4 µM (inactive); in the experiment on NCI-H522, 42.1 µM (inactive). Moreover, the GI50 was 40.7 µM (inactive) with SR; 53.3 µM (inactive) with UO-31; 58.9 µM (inactive) in the experiment with OVCAR-8; 52.5 µM (inactive) in the experiment on K562; 34.7 µM (inactive) with EKVX; > 100 µM (inactive) with Hs-578T. For the same compound, the GI50 is > 100 µM (inactive) in the experiment on Malme-3M and 49.4 µM (inactive) in the experiment on TK-10.

`O=C[C@@H](CO)O[C@H](C=O)c1c[nH]c(=O)[nH]c1=O`: the GI50 with SK-OV-3 was 112 µM (inactive); with SF-295, 146 µM (inactive); in the experiment on 786-0, 128 µM (inactive); in the experiment with DU-145, 100 µM (inactive); in the experiment with MDA-MB-435, 49.4 µM (inactive); in the experiment on SF-539 it was 101 µM (inactive). Further, the GI50 in the experiment on COLO 205 is 77.1 µM (inactive); with SN12C it was 83 µM (inactive); in the experiment on LOX IMVI it was 93.8 µM (inactive); in the experiment with MCF7, 45.2 µM (inactive); with SNB-75, 182 µM (inactive); with NCI-H522, 70.1 µM (inactive). Moreover, the GI50 in the experiment on SR is 35.6 µM (inactive); in the experiment with UO-31, 88.5 µM (inactive); in the experiment with OVCAR-8 it was 66.1 µM (inactive); with K562 it was 66.1 µM (inactive); with EKVX, 75.7 µM (inactive); in the experiment on Hs-578T, 100 µM (inactive). Besides, the GI50 in the experiment with Malme-3M is 88.7 µM (inactive); with TK-10, 104 µM (inactive).

As to `COc1cc2ccc(C(=O)NCCCNC(=O)c3ccc4cc(OC)c(OC)cc4c3)cc2cc1OC`, the GI50 with SK-OV-3 was > 100 µM (inactive); with SF-295 it was > 100 µM (inactive); in the experiment with 786-0, > 100 µM (inactive); in the experiment with DU-145, > 100 µM (inactive); in the experiment on MDA-MB-435, > 100 µM (inactive); in the experiment on SF-539, 53.3 µM (inactive). Further, the GI50 is > 100 µM (inactive) with COLO 205; > 100 µM (inactive) in the experiment with SN12C; > 100 µM (inactive) in the experiment with LOX IMVI; > 100 µM (inactive) with MCF7; 32.9 µM (inactive) in the experiment with SNB-75; > 100 µM (inactive) in the experiment on NCI-H522. Moreover, the GI50 was 35.5 µM (inactive) with SR; > 100 µM (inactive) in the experiment with UO-31; > 100 µM (inactive) in the experiment on OVCAR-8; > 100 µM (inactive) in the experiment with K562; > 100 µM (inactive) with EKVX; 36.6 µM (inactive) with Hs-578T. Further, the GI50 in the experiment with Malme-3M and with TK-10 was > 100 µM (inactive) each time.

`CCc1cccc(CC)c1NC(=O)C(C#N)C1=C(Cl)C(=O)c2ccccc2C1=O` (stereo not given): the GI50 with SK-OV-3 was 19.7 µM (inactive); in the experiment on SF-295, 15.7 µM (inactive); with 786-0, 16.4 µM (inactive); in the experiment on DU-145, 16.8 µM (inactive); in the experiment with MDA-MB-435, 14.5 µM (inactive); in the experiment with SF-539, 11.3 µM (inactive). The GI50 in the experiment with COLO 205 was 20.3 µM (inactive); with SN12C it was 16.7 µM (inactive); in the experiment on LOX IMVI, 12.7 µM (inactive); in the experiment on MCF7, 14.6 µM (inactive); in the experiment on SNB-75 it was 5.18 µM (inactive); in the experiment on NCI-H522, 8.55 µM (inactive). Moreover, the GI50 was 1.2 µM (inactive) in the experiment on SR; 11.8 µM (inactive) in the experiment with UO-31; 19.8 µM (inactive) with OVCAR-8; 2.33 µM (inactive) in the experiment on K562; 21.1 µM (inactive) in the experiment with EKVX; < 0.01 µM (active) in the experiment with Hs-578T. In addition, the GI50 is 9.23 µM (inactive) in the experiment with Malme-3M and 21.2 µM (inactive) with TK-10.

With `O=C1c2cccnc2C(=O)c2c1nc1ccccc1c2-c1ccc2c3c(nc4ccccc42)C(=O)c2cccnc2-c13`, the GI50 is 1.85 µM (inactive) with SK-OV-3; 2.56 µM (inactive) with SF-295; 0.417 µM (active) in the experiment with 786-0; 0.359 µM (active) with DU-145; 1.87 µM (inactive) in the experiment on MDA-MB-435; 0.832 µM (active) with SF-539. Moreover, the GI50 was 2.08 µM (inactive) in the experiment with COLO 205; 0.912 µM (active) in the experiment with SN12C; 0.437 µM (active) with LOX IMVI; 2.07 µM (inactive) in the experiment with MCF7; 2.07 µM (inactive) with SNB-75; 0.692 µM (active) with NCI-H522. In addition, the GI50 is < 0.01 µM (active) with SR; 1.24 µM (inactive) in the experiment with UO-31; 0.37 µM (active) in the experiment on OVCAR-8; 1.58 µM (inactive) in the experiment with K562; 0.94 µM (active) with EKVX; 1.81 µM (inactive) with Hs-578T. Moreover, the GI50 in the experiment with Malme-3M was 1.04 µM (active); in the experiment with TK-10, 2.76 µM (inactive).
